Measured values reported in article PMC5785997, “2-Phenylquinazolinones as dual-activity tankyrase-kinase inhibitors” (Scientific Reports, 2018).

How the values were obtained:
[1] = biological target: p38α (Homo sapiens, UniProt Q16539); assay: Kinase functional assay (mobility shift), p38α; type: biochemical; conditions: read-out: p38α (% Inhib.); for inhibition at 1 µM: 1 µM compound, Table S3; for inhibition at 10 µM: 10 µM compound, Table S4
[2] = biological target: T1, ARTD10/PARP10 (Homo sapiens, UniProt Q53GL7); assay: ARTD profiling, ARTD10
T1 sequence (Q53GL7 806-1025 limits assumed): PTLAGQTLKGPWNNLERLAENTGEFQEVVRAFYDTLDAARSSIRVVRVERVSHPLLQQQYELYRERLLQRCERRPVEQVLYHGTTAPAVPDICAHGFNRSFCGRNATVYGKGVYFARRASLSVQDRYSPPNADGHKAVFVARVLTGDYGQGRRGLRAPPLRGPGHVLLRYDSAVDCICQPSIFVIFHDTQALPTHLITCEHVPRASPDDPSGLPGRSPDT

[3] = biological target: ARTD5/TNKS1 (Homo sapiens, UniProt O95271); assay: NAD+ quantification activity assay, TNKS1; type: biochemical; conditions: NAD+ 500 nM
Chain of ARTD5/TNKS1 (O95271 1112-1317): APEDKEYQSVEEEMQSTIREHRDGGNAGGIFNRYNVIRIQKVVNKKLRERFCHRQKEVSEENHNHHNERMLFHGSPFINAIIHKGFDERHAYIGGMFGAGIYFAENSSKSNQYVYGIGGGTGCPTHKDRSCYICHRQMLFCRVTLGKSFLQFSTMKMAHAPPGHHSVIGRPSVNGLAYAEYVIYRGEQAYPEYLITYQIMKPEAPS
Protocol: (§1) Protein (nM) NAD+ (nM) Incubation Buffer
(§2) Kinase [ATP] Substrate Incubation Reaction buffer

[4] = biological target: T2, ARTD3/PARP3 (Homo sapiens, UniProt Q9Y6F1); assay: ARTD profiling, ARTD3; type: biochemical; conditions: NAD+ 500 nM
T2 sequence (Q9Y6F1 1-533): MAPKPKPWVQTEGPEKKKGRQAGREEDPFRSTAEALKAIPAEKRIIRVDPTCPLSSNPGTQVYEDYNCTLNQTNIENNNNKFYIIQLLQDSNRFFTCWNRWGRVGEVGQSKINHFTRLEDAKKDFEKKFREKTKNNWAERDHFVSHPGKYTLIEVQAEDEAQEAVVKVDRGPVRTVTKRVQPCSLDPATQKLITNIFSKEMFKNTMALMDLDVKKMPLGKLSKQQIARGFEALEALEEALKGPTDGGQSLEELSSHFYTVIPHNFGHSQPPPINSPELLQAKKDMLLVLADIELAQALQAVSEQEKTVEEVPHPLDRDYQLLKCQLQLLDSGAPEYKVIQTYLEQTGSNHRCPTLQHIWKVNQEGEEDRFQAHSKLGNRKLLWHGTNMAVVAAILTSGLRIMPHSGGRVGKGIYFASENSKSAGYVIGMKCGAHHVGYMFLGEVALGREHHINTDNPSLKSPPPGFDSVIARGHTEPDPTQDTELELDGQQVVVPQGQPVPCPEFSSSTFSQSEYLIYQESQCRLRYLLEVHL
Protocol: as §1, §2

[5] = test system: Wnt/β-catenin signaling (TCF/LEF Reporter HEK293 Cell Line); assay: Wnt signaling TCF/LEF reporter assay in HEK293 cells; type: cell-based, human; conditions: for Wnt (HEK293) inhibition at 1 µM: 1 µM compound; for inhibition at 1 µM: HEK293, 1 µM compound
Protocol: The Wnt assay was performed using a procedure modified from the BPS Bioscience protocol. Details are given in the Supplementary Methods. […]
The Wnt Signaling Pathway TCF/LEF Reporter HEK293 Cell Line (BPS Bioscience, catalog […]
Reporter HEK293 cells were grown at 37 °C with 5% CO2 using Dulbecco's Modified Eagle's Medium (DMEM, Sigma), supplemented with 10% of fetal bovine serum (Lonza), 1% non-essential amino acid (Sigma), 1X of penicillin and streptomycin (Sigma), and 400 µg/ml of Geneticin (Roche). Wnt-3a and L cells (ATCC) were cultured in Dulbecco’s modified Eagle’s medium supplemented with 10% fetal bovine serum, penicillin and streptomycin at 37 °C in a 5%
CO2. Wnt3a and control conditioned medium preparation has been described previously1. The Wnt assay was performed using a procedure modified from the BPS Bioscience protocol. 30,000 HEK293 cells/well in 40 µl of serum-free DMEM were plated on 96-well plate (white wells, clear […]
bottom, PerkinElmer). 10 µl of 50 mM LiCl in serum-free DMEM with 5x concentration of DMSO or tankyrase inhibitors was added. After 16 hours of incubation, 25 µl of Wnt3a or control conditioned medium supplemented with DMSO or tankyrase inhibitors was added on cells and cells were incubated for additional 24 hours. After the second incubation, the 96-well plates were balanced in room temperature for 30 minutes. Wnt3a induced luciferase activity was determined using ONE-Glo Luciferase Assay System (Promega) according to manufacturer’s protocol. […]
Difference Fourier method deriving the starting phases from 3U9H. The refinement of the structures was done with REFMAC5.5,6 Final manual building, analysis and visualization of the structures were made with Coot7 and PyMOL (www.pymol.org). All chemical structures were drawn with Marvin (Marvin 5.7.0 2011, ChemAxon, http://www.chemaxon.com). The docking studies were performed using GOLD software.8

[6] = biological target: T3, ARTD4/PARP4 (Homo sapiens, UniProt Q9UKK3); assay: ARTD profiling, ARTD4
T3 sequence (Q9UKK3 369-573 limits assumed): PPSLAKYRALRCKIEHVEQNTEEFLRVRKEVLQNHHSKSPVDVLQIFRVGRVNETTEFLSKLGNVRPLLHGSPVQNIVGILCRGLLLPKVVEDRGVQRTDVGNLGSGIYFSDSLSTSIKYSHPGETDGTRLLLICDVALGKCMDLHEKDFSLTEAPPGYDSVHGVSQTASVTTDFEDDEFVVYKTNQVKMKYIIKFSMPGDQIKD

[7] = Homo sapiens, TCF/LEF reporter HEK293

Chain of p38α (Q16539 whole entry): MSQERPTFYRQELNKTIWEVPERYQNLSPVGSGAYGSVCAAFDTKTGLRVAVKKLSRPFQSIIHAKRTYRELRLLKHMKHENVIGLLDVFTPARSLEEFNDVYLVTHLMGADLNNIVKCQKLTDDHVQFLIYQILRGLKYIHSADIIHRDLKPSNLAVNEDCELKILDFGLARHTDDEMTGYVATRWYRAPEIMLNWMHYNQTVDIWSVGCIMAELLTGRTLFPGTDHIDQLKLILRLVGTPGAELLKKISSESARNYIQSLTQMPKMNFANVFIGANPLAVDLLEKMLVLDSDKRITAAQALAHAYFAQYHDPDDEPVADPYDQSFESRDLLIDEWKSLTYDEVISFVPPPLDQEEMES

Compound	inhibition at 1 µM [1]	inhibition at 10 µM [1]	IC50 [2]	IC50 [3]	IC50 [4]	Wnt (HEK293) inhibition at 1 µM ([5]; TCF/LEF reporter HEK293)	inhibition at 1 µM [5, 7]	Effect on Wnt/β-catenin signaling at lower concentrations ([5]; concentrations below 1 µM)	IC50 [6]	IC50 [5, 7]
CCN(CC)c1ccc(-c2nc3ccccc3c(=O)[nH]2)cc1 [Compound 32]	1 ± 1%	20 ± 2%	> 10 µM	0.011 µM	2.1 µM	63%	> 50%	activated Wnt/β-catening signaling	5.5 µM	–
O=c1[nH]c(-c2ccc(N3CCCCC3)cc2)nc2ccccc12 [Compound 30]	3 ± 1%	3 ± 3%	> 10 µM	0.03 µM	23 µM	> 50%	61%	–	12 µM	0.57 µM
